Measurements reported in US6972296B2, “Carboxylic acid derivatives that inhibit the binding of integrins to their receptors” (Encysive Pharmaceuticals Inc., priority 1999, dated 2005).
Blank lines part the entries; values can stand above or below the molecule they belong to.

Biological target: T1, α4β1 integrin (Homo sapiens, UniProt P05556+P13612)
T1 construct: endogenous in cells; host or cells: Ramos cells
Test: Adhesion of calcein-labeled Ramos cells to CS1 (fibronectin) peptide conjugated ovalbumin
Type: cell-based
Conditions: Ramos cell adhesion to CS1 conjugated ovalbumin
Procedure, shortened: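 Calcein AM-labelled Ramos cells (2.5×10^5/well) with compound, up to 100 μM, added to plates coated with CS1 peptide–ovalbumin (0.5 μg/ml) and blocked with 3% BSA. Binding buffer TBS pH 7.5 with 1 mM each MgCl2, CaCl2, MnCl2; 30 min, 37 °C. After washes, adherent cells lysed and read fluorometrically; […].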

[1] = Table 5, dose required to give 50% inhibition
[2] = Table 7, dose required to give 50% inhibition

T1 sequence (P13612 34-1032): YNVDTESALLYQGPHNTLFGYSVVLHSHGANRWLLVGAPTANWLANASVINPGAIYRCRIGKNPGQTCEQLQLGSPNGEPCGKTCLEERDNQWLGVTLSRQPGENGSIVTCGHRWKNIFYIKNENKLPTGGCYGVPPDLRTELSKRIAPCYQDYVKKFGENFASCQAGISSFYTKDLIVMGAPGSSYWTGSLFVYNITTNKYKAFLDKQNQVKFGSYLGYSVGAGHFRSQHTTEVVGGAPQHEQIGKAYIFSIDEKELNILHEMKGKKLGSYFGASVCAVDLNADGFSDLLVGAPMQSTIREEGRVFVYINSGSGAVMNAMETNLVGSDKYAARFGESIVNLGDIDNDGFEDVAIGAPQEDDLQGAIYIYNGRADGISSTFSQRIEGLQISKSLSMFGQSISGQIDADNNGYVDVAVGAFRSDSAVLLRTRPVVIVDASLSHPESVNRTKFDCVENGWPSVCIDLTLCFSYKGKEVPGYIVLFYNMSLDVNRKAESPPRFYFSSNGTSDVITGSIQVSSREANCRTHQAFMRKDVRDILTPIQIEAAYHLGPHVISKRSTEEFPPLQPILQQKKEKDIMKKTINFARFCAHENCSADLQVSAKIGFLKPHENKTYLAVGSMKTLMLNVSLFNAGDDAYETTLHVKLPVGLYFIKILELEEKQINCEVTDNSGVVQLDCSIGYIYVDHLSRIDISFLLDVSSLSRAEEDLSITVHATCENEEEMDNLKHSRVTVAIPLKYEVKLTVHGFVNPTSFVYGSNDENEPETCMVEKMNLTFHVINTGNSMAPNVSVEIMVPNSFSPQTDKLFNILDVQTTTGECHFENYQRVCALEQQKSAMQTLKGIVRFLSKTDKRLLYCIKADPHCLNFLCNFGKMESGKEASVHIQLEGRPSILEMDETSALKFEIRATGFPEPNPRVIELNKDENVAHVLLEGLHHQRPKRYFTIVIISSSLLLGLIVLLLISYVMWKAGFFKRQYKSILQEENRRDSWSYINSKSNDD
T1 sequence (P05556 21-798): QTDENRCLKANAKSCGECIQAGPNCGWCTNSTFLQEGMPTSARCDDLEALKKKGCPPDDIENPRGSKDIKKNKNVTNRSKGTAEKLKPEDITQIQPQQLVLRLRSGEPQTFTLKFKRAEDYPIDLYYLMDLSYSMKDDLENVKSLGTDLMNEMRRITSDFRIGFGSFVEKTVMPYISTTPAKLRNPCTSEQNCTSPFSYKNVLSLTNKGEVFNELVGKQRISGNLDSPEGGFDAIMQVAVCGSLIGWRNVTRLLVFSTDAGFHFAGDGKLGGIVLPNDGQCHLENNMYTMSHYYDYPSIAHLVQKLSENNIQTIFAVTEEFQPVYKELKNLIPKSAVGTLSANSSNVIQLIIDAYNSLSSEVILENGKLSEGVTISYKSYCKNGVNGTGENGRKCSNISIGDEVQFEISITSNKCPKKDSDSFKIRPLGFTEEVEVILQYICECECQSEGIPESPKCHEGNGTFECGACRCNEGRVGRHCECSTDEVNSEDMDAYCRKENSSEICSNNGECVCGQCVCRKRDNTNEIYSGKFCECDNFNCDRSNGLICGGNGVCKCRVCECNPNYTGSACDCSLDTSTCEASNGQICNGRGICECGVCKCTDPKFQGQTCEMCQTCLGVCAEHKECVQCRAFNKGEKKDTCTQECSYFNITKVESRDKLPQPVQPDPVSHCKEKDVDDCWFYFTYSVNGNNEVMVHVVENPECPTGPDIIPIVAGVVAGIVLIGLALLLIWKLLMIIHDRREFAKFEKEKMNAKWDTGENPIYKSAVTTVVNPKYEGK

IC50 [1]: 75 nM
Compound: Cc1ccc([C@H](CC(=O)O)NC(=O)Nc2c(O)ccn(Cc3ccccc3OC(F)F)c2=O)cc1

IC50 (Table 6, 30 minutes at 37° C.): 115 nM
Compound: Cc1cc(C(CC(=O)O)NC(=O)Nc2c(O)ccn(Cc3ccccc3Cl)c2=O)oc1C (stereo not drawn)

IC50 [2]: 22 nM
Compound: CCc1nn(Cc2ccccc2Cl)c(=O)c(NC(=O)N[C@@H](CC(=O)O)c2ccc(C)cc2)c1O

IC50 [1]: 50 nM
Compound: O=C(O)CC(NC(=O)Nc1c(O)ccn(Cc2ccccc2Cl)c1=O)c1cccnc1 (stereo not drawn)

IC50 [1]: 10 nM
Compound: Cc1ccc([C@H](CC(=O)O)NC(=O)Nc2c(O)ccn(Cc3cc(C(F)(F)F)ccc3Cl)c2=O)cc1 [(3S)-3-{[({1-[2-chloro-5-(trifluoromethyl)benzyl]-4-hydroxy-2-oxo-1,2-dihydropyridin-3-yl}amino)carbonyl]amino}-3-(4-methylphenyl)propanoic acid]

IC50 [1]: 225 nM
Compound: O=C(O)C[C@@H](Cc1ccccn1)NC(=O)Nc1c(O)ccn(Cc2ccccc2Cl)c1=O

IC50 [2]: 55 nM
Compound: Cc1ccccc1-c1ccc([C@H](CC(=O)O)NC(=O)Nc2c(O)c(C)cn(Cc3ccccc3Cl)c2=O)cc1

IC50 [1]: 5 nM
Compound: CCCc1cn(Cc2ccccc2Cl)c(=O)c(NC(=O)N[C@@H](CC(=O)O)c2ccc(OCC)c(OCC)c2)c1O [(3S)-3-[({[1-(2-chlorobenzyl)-4-hydroxy-2-oxo-5-propyl-1,2-dihydropyridin-3-yl]amino}carbonyl)amino]-3-(3,4-diethoxyphenyl)propanoic acid]

IC50 (Table 6, 30 minutes at 37° C.): 20 nM
Compound: CCCCOc1cccc([C@H](CC(=O)O)NC(=O)Nc2c(O)c3c(n(Cc4ccccc4Cl)c2=O)CCC3)c1

IC50 (Table 6, 30 minutes at 37° C.): 700 nM
Compound: O=C(O)C[C@@H](Cc1ccccc1Cl)NC(=O)Nc1c(O)ccn(Cc2ccccc2Cl)c1=O

IC50 [2]: 17 nM
Compound: Cc1cccc(Cl)c1Cn1c2c(c(O)c(NC(=O)N[C@@H](CC(=O)O)c3ccccc3)c1=O)CCC2

IC50 (Table 6, 30 minutes at 37° C.): 3 nM
Compound: Cc1cn(Cc2ccccc2Cl)c(=O)c(NC(=O)N[C@@H](CC(=O)O)c2cccc(OC(C)C)c2)c1O

IC50 (Table 3, 30 minutes at 37° C.): 30 nM
Compound: Cc1ccc([C@H](CC(=O)O)NC(=O)Nc2c(C)ccn(Cc3ccccc3)c2=O)cc1

IC50 [1]: 15 nM
Compound: Cc1ccc([C@H](CC(=O)O)NC(=O)Nc2c(O)ccn(Cc3cccc(Cl)c3)c2=O)cc1

IC50 [1]: 200 nM
Compound: Cc1ccc([C@H](CC(=O)O)NC(=O)Nc2cccn(Cc3ccccc3O)c2=O)cc1

IC50 [2]: 20 nM
Compound: Cc1ccc(C(CC(=O)O)NC(=O)Nc2c(O)c(C)cn(Cc3ccccc3Cl)c2=O)o1 (stereo not drawn)

IC50 [2]: 15 nM
Compound: CCOc1ccc2cc([C@H](CC(=O)O)NC(=O)Nc3c(O)c4c(n(Cc5ccccc5Cl)c3=O)CCC4)ccc2c1

IC50 [1]: 15 nM
Compound: CCc1cccc([C@H](CC(=O)O)NC(=O)Nc2c(O)ccn(Cc3ccccc3Cl)c2=O)c1

IC50 (Table 4, 30 minutes at 37° C.): 400 nM
Compound: Cc1ccc([C@H](CC(=O)O)NC(=O)Nc2cccn(Cc3ccc(Cl)cc3Cl)c2=O)cc1

IC50 (Table 6, 30 minutes at 37° C.): 3 nM
Compound: CCOc1cccc([C@H](CC(=O)O)NC(=O)Nc2c(O)c3c(n(Cc4ccccc4Cl)c2=O)CCC3)c1

IC50 [1]: 40 nM
Compound: COc1cccc(Cn2ccc(O)c(NC(=O)N[C@@H](CC(=O)O)c3ccc(C)cc3)c2=O)c1

IC50 [2]: 30 nM
Compound: Cc1cccc(-c2ccc([C@H](CC(=O)O)NC(=O)Nc3c(O)ccn(Cc4ccccc4Cl)c3=O)cc2)c1

IC50 (Table 3, 30 minutes at 37° C.): 300 nM
Compound: Cc1ccn(Cc2ccccc2Cl)c(=O)c1NC(=O)N[C@H](C)CC(=O)O

IC50 [2]: 175 nM
Compound: Cc1cn(Cc2ccccc2Cl)c(=O)c(NC(=O)N[C@@H](CC(=O)O)c2ccc(C(C)C)cc2)c1O

IC50 [1]: 30 nM
Compound: Cc1cn(Cc2ccccc2Cl)c(=O)c(NC(=O)NC(CC(=O)O)c2ccc3ccccc3c2)c1O (stereo not drawn)

IC50 [2]: 17 nM
Compound: O=C(O)C[C@H](NC(=O)Nc1c(O)c2c(n(Cc3ccccc3Cl)c1=O)CCC2)c1cccc(-c2ccccc2)c1

IC50 [1]: 35 nM
Compound: Cc1ccc([C@H](CC(=O)O)NC(=O)Nc2c(O)ccn(Cc3ccc(S(=O)(=O)N(C)C)cc3)c2=O)cc1

IC50 (Table 3, 30 minutes at 37° C.): 30 nM
IC50 (Table 4, 30 minutes at 37° C.): 30 nM
Compound: O=C(O)CC(NC(=O)Nc1c(O)ccn(Cc2ccccc2Cl)c1=O)c1cccc(Cl)c1 (stereo not drawn)

IC50 [2]: 30 nM
Compound: CCc1ccc([C@H](CC(=O)O)NC(=O)Nc2c(O)c(C)cn(Cc3ccccc3Cl)c2=O)cc1

Continued, molecule first:

Compound: CCOc1cccc(Cl)c1Cn1cc(C)c(O)c(NC(=O)N[C@@H](CC(=O)O)c2ccc3cc(OC)ccc3c2)c1=O [(3S)-3-[({[1-(2-chloro-6-ethoxybenzyl)-4-hydroxy-5-methyl-2-oxo-1,2-dihydropyridin-3-yl]amino}carbonyl)amino]-3-(6-methoxy-2-naphthyl)propanoic acid]
IC50 [2]: 3 nM

Compound: Cc1ccc([C@H](CC(=O)O)NC(=O)Nc2cccn(Cc3cc(F)ccc3Br)c2=O)cc1
IC50 (Table 4, 30 minutes at 37° C.): 500 nM

Compound: COc1ccc(Cl)c(Cn2cc(C)c(O)c(NC(=O)N[C@@H](CC(=O)O)c3ccc(C)cc3)c2=O)c1 [(3S)-3-[({[1-(2-chloro-5-methoxybenzyl)-4-hydroxy-5-methyl-2-oxo-1,2-dihydropyridin-3-yl]amino}carbonyl)amino]-3-(4-methylphenyl)propanoic acid]
IC50 [2]: 3 nM

Compound: CCOc1cc(OCC)cc([C@H](CC(=O)O)NC(=O)Nc2c(O)c(C)nn(Cc3ccccc3Cl)c2=O)c1
IC50 (Table 6, 30 minutes at 37° C.): 10 nM

Compound: CCOc1cccc(Cl)c1Cn1c2c(c(O)c(NC(=O)N[C@@H](CC(=O)O)c3cccc(OCC4CC4)c3)c1=O)CCC2 [(3S)-3-[({[1-(2-chloro-6-ethoxybenzyl)-4-hydroxy-2-oxo-2,5,6,7-tetrahydro-1H-cyclopenta[b]pyridin-3-yl]amino}carbonyl)amino]-3-[3-(cyclopropylmethoxy)phenyl]propanoic acid]
IC50 [2]: 4 nM

Compound: CCCCN(C(=O)N[C@@H](CC(=O)O)c1ccc2c(c1)OCO2)c1cccn(Cc2cccs2)c1=O
IC50 (Table 2, 30 minutes at 37° C.): 20000 nM

Compound: Cc1ccc([C@H](CC(=O)O)NC(=O)Nc2cccn(Cc3c(Cl)cccc3[N+](=O)[O-])c2=O)cc1
IC50 (Table 4, 30 minutes at 37° C.): 4000 nM

Compound: COc1cccc(F)c1Cn1cc(C)c(O)c(NC(=O)N[C@@H](CC(=O)O)c2ccc(C)cc2)c1=O
IC50 (Table 6, 30 minutes at 37° C.): 10 nM

Compound: Cc1ccc([C@H](CC(=O)O)NC(=O)Nc2cccn(Cc3ccc(Cl)cc3)c2=O)cc1
IC50 (Table 4, 30 minutes at 37° C.): 2000 nM

Compound: COc1cccc(Cl)c1Cn1cc(C)c(O)c(NC(=O)N[C@@H](CC(=O)O)c2ccc(C)cc2)c1=O
IC50 (Table 6, 30 minutes at 37° C.): 5 nM

Compound: CCOc1cccc([C@H](CC(=O)O)NC(=O)Nc2c(O)c(C)cn(Cc3c(C)cccc3Cl)c2=O)c1
IC50 (Table 6, 30 minutes at 37° C.): 4 nM

Compound: CCOc1cccc(Cl)c1Cn1cc(C)c(O)c(NC(=O)N[C@@H](CC(=O)O)c2cccc(OC(C)C)c2)c1=O [(3S)-3-[({[1-(2-chloro-6-ethoxybenzyl)-4-hydroxy-5-methyl-2-oxo-1,2-dihydropyridin-3-yl]amino}carbonyl)amino]-3-(3-isopropoxyphenyl)propanoic acid]
IC50 (Table 6, 30 minutes at 37° C.): 4 nM

Compound: Cc1ccc([C@H](CC(=O)O)NC(=O)Nc2cccn(Cc3cc(F)ccc3F)c2=O)cc1
IC50 (Table 4, 30 minutes at 37° C.): 800 nM

Compound: Cc1ccc(Cn2cccc(NC(=O)N[C@@H](CC(=O)O)c3ccc4c(c3)OCO4)c2=O)cc1
IC50 (Table 4, 30 minutes at 37° C.): 1000 nM

Compound: Cc1ccc([C@H](CC(=O)O)NC(=O)Nc2cccn(Cc3cc([N+](=O)[O-])ccc3Br)c2=O)cc1
IC50 (Table 4, 30 minutes at 37° C.): 2000 nM

Compound: Cc1ccc([C@H](CC(=O)O)NC(=O)Nc2c(O)c(C)cn(Cc3cccc(Cl)c3)c2=O)cc1
IC50 (Table 6, 30 minutes at 37° C.): 20 nM

Compound: COc1ccc([C@H](CC(=O)O)NC(=O)Nc2cccn(Cc3cccs3)c2=O)cc1
IC50 (Table 4, 30 minutes at 37° C.): 800 nM

Compound: Cc1cccc(Cl)c1Cn1c2c(c(O)c(NC(=O)N[C@@H](CC(=O)O)c3ccc4c(c3)CCC4)c1=O)CCC2
IC50 [2]: 10 nM

Compound: CCOc1cc([C@H](CC(=O)O)NC(=O)Nc2c(O)c3c(n(Cc4c(C)cccc4Cl)c2=O)CCC3)ccc1Cl
IC50 [2]: 25 nM

Compound: Cc1ccc([C@H](CC(=O)O)NC(=O)Nc2c(O)c(C)cn(Cc3ccc(Cl)cc3)c2=O)cc1
IC50 [1]: 20 nM

Compound: Cc1ccc([C@H](CC(=O)O)NC(=O)Nc2cccn(Cc3ccc([N+](=O)[O-])cc3)c2=O)cc1
IC50 (Table 4, 30 minutes at 37° C.): 1000 nM
